{"source": "patent US20250008983A1", "about": "“COMPOSITIONS CONTAINING PEROXYACIDS TO CONTROL PATHOGEN GROWTH IN ANIMAL FEED AND RELATED METHODS” (KEMIN INDUSTRIES, INC., priority 2023, published 2025)", "assay_type_in_all_cases": "cell-based", "key": {"[1]": {"tested_on": "Salmonella enterica isolated from layer feed", "assay": "Preliminary in vitro feed assay, Salmonella count in contaminated feed over 21 days", "conditions": "15 kg/ton", "protocol": "(§1) Preparation of the treatment. Perpropionic acid, peracetic acid, mixture of peroctanoic acid and perdecanoic acid (PC8/PC10) and Sal CURB products were used without any further dilution or mixing. The peroxy mix was prepared by mixing peracetic and perpropionic acid in 1:1 weight ratio. Briefly, 1.0 g of peroxy mix was prepared by weighing 0.5 g of peracetic acid into 0.5 g of perpropionic acid. The mixture was mixed well prior to usage. Similar procedure was followed in the preparation of 3% sulphuric acid (where […] of water) and peroxy mix with ester (where 0.9 g of peroxy mix (prepared with peracetic and propionic acid) was mixed with 0.1 g of propylene glycol propionate esters). […] Briefly, 1 mL of 75% phosphoric acid was added to 10 mL of Pro-Oxine solution and mixed well. The mixture is covered and let to stand for 10 mins prior to usage.\n(§2) Preparation of stock feed inoculum. The researchers prepared contaminated feed from known methods, where Salmonella enterica isolated from layer feed was revived from the glycerol stock by plating a loopful of culture onto the TSAYE (i.e., tryptone soya agar supplemented with 0.6% yeast extract (CM0131B; Oxoid) prepared as per recommended) and incubate for 18-24 hours at 37° C. Following which, the colonies were collected aseptically with saline solution (i.e., 0.9% sodium chloride (V800372; Sigma-Aldrich) prepared in deionized water), yielding approximately 5 mL of biomass suspension. The biomass suspension was diluted accordingly to meet the contamination level required for the stock inoculum. No dilution was required for high contamination level of ca. 10^7 cfu/g whereas biomass suspension was diluted 1000 times to achieve lower contamination level of ca. 10^4 cfu/g in the stock inoculum. The stock feed inoculum was prepared by adding the biomass suspension (5 mL) into 100 g of sterile feed (made up with 7:3 ground corn and soybean, autoclaved at 121° C. for one hour and dried for 24 hours at 65° C.) with a syringe and needle, and homogenously mixed after. The stock feed inoculum was stored at 25° C. for a week. Salmonella count of the stock inoculum was determined using conventional plating method with XLD agar (i.e., Xylose lysine deoxycholate (CM0469B; Oxoid)) and BPW (i.e., buffered peptone water (CM0509B; Oxoid)) prior to usage. Briefly, three grams of stock feed inoculum was weighed into a 50 mL conical tube, diluted with 27 mL of BPW, homogenously mixed and left to stand for 30 minutes. The feed suspension was then serial diluted to the appropriate dilutions. An aliquot of 0.1 mL of the feed suspension was plated onto the agar at each dilution and incubated at 37° C. for 18-24 hours prior to enumeration. Plating was carried out in triplicates. Blank stock feed was prepared by adding 5 mL of saline into 100 g of sterile feed.\n(§3) Preparation of the feed inoculum. The stock feed inoculum was diluted approximately 100 times with sterile feed where three grams of stock inoculum was added into 307 g of sterile feed and kept at 37° C. for 24 hours. The Salmonella count of the feed was determined prior to treatment. Briefly, 90 mL of BPW was added into 10 g of feed sample in a sterile bag (10^−1 dilution). The mixture was homogenously mixed with a stomacher at medium speed for three minutes and left to stand for 30 minutes. The feed supernatant was serial diluted to appropriate dilutions for plating. The plates were incubated at 37° C. for 18-24 hours prior to counting. If low Salmonella count was expected, the sample size was increased to 1 mL by plating 300, 300 and 400 uL onto three plates in triplicates for […] detection limit (10 cfu/g). Blank feed was prepared by adding three grams of blank stock feed into 307 g of sterile feed. In addition, an extra contaminated feed was prepared as a control.\n(§4) Treatment of contaminated feed. […]"}, "Enterobacteriaceae": {"tested_on": "Enterobacteriaceae", "protocol": "Materials and Method. Naturally contaminated layer feed was collected, ground, and mixed well prior to weighing. The ground feed was weighed and separated into 15 different bags, each containing 300 g. The product/prototype was accurately weighed at the needed dosage and adjusted to a total volume of 5 mL prior to adding into the 300 g of feed with a syringe and needle. Product/prototype was added in batches (i.e., 2, 2, and 1 mL separately) and mixed after each addition. Five mL of sterile water was added into the feed and served as the control. The treated feed samples were homogenized after treatment and kept at 25° C. until the day of enumeration.\nTEC of the 15 samples were studied over a period of 22 days with enumeration interval at time points 0, 1 and 22 days. The effect of peroxy acid was neutralized at each time point prior to enumeration. At each time point, 20 mL of 0.1 M sodium thiosulphate was added into 10 g of each treated feed sample in a sterile bag. The mixture was mixed well and left to stand for 10 minutes. After 10 minutes, 70 mL of BPW was added to achieve 10^−1 dilution. The feed suspension was homogenously mixed and left to stand for 30 minutes. Subsequently, the feed suspension was serial diluted to appropriate dilutions for enumeration. 100 uL of the diluted samples were plated onto Violet Red Bile Glucose (VRBG; CM0485 from Oxoid) agar, prepared as per recommended by the supplier. An aliquot of 0.1 mL of the feed suspension was plated onto the agar at each dilution and incubated at 37° C. for 18-24 hours prior to enumeration. Plating was carried out in triplicates. If low TEC is expected, the sample size is increased to 1 mL by plating 300, 300 and 400 uL onto three plates in triplicates for lower detection limit (10 CFU/g). The diluted feed samples (at 10^−1 dilution factor) were kept at 37° C. for 18-24 hours for enrichment prior to streaking. A loopful of diluted feed suspension was streaked onto the VRBG agar and incubated at 37° C. for 18-24 hours to determine qualitatively the presence of Enterobacteriaceae for samples with undetectable TEC."}, "[2]": {"tested_on": "Escherichia coli ATCC 25922", "assay": "Minimum inhibitory concentration (MIC), broth microdilution", "conditions": "Escherichia coli", "protocol": "Materials and Methods. The assay was conducted to determine the minimum inhibitory concentration (MIC) of peroxy-acids against Escherichia coli ATCC 25922. E. coli was purchased from American Type Culture Collection (ATCC). The strain was stored at −80° C. in glycerol. Prior to usage, E. coli was revived by streaking a loopful of culture onto TSAYE (i.e., tryptone soya agar yeast extract (CM0131 and LP0021; Oxoid) prepared as per recommended by Oxoid) with overnight incubation at 37° C. An overnight culture of E. coli was diluted in TSBYE (i.e, tryptone soya broth yeast extract (CM0129; Oxoid) prepared as per recommended by Oxoid) to obtain a cell suspension of ca. 10^5 CFU/mL. Subsequently, 100 μL of the diluted culture was added to 100 μL of the test solutions at the needed concentrations into a microtiter plate (92096; TPP Techno Plastic Products AG). Peroxy-acids were tested at an active concentration of 25-1600 μg/mL. Subsequently, the inoculated plate was incubated at 37° C. up to 48 hours with the bacterial cell density recorded at optical density (OD) 600 nm at 24 hours interval using a microplate reader (Varioskan LUX; Thermo Fisher)."}, "[3]": {"tested_on": "Salmonella enterica isolated from layer feed", "assay": "In vitro feed assay, high Salmonella contamination level (~5 log cfu/g)", "conditions": "10.0 kg/ton", "protocol": "as §1, §2, §3, §4"}}, "note": "Read-outs that look alike come from different tables or passages of the source.", "data": [{"compound": "O=S(=O)(O)O", "note": "[3% w/w sulphuric acid, sulphuric acid]", "values": [{"measurement": "Salmonella killing effect", "setting": "[1]; over the 21 days", "result": "No Salmonella killing effect"}, {"measurement": "Salmonella count", "setting": "[1]; post-treatment Day 1", "result": 5.80, "unit": "log cfu/g"}, {"measurement": "Salmonella count", "setting": "[1]; post-treatment Day 6", "result": 5.02, "unit": "log cfu/g"}, {"measurement": "Salmonella count", "setting": "[1]; post-treatment Day 21", "result": 4.82, "unit": "log cfu/g"}, {"measurement": "Salmonella count", "setting": "[1]; pre-treatment Day 0", "result": 5.59, "unit": "log cfu/g"}]}, {"compound": "CC(=O)OO", "note": "[Peracetic acid, peracetic acid]", "values": [{"measurement": "TEC", "setting": "Enterobacteriaceae; 2.5 kg/ton, post treatment Day 1", "result": "<1.00", "unit": "log CFU/g"}, {"measurement": "TEC", "setting": "Enterobacteriaceae; 2.5 kg/ton, post treatment Day 22", "result": 3.32, "unit": "log CFU/g"}, {"measurement": "TEC", "setting": "Enterobacteriaceae; 2.5 kg/ton, pre-treatment Day 0", "result": 3.37, "unit": "log CFU/g"}, {"measurement": "TEC", "setting": "Enterobacteriaceae; 5.0 kg/ton, post treatment Day 1", "result": 2.39, "unit": "log CFU/g"}, {"measurement": "TEC", "setting": "Enterobacteriaceae; 5.0 kg/ton, post treatment Day 22", "result": "<1.00", "unit": "log CFU/g"}, {"measurement": "TEC", "setting": "Enterobacteriaceae; 5.0 kg/ton, pre-treatment Day 0", "result": "<2.00", "unit": "log CFU/g"}, {"measurement": "TEC", "setting": "Enterobacteriaceae; 10.0 kg/ton, post treatment Day 1", "result": 1.43, "unit": "log CFU/g"}, {"measurement": "TEC", "setting": "Enterobacteriaceae; 10.0 kg/ton, post treatment Day 22", "result": "<1.00", "unit": "log CFU/g"}, {"measurement": "TEC", "setting": "Enterobacteriaceae; 10.0 kg/ton, pre-treatment Day 0", "result": 2.52, "unit": "log CFU/g"}, {"measurement": "MIC", "setting": "[2]; ATCC25922, preliminary results, read-out: MIC", "result": 300, "unit": "µg/mL"}, {"measurement": "MIC", "setting": "[2]; ATCC25922, no increment in OD over 48 hours, 37° C., read-out: Minimum inhibitory concentration (μg/mL) against E. coli", "result": 300, "unit": "µg/mL"}, {"measurement": "Salmonella count", "setting": "[3]; post-treatment Day 1", "result": 2.01, "unit": "log cfu/g"}, {"measurement": "Salmonella count", "setting": "[3]; post-treatment Day 2", "result": "BD (Salmonella count is below detection limit (1 log cfu/g))"}, {"measurement": "Salmonella count", "setting": "[3]; post-treatment Day 3", "result": "BD (Salmonella count is below detection limit (1 log cfu/g))"}, {"measurement": "Salmonella count", "setting": "[3]; post-treatment Day 6", "result": 2.11, "unit": "log cfu/g"}, {"measurement": "Salmonella count", "setting": "[3]; post-treatment Day 14", "result": "BD (Salmonella count is below detection limit (1 log cfu/g))"}, {"measurement": "Salmonella count", "setting": "[3]; post-treatment Day 21", "result": 1.12, "unit": "log cfu/g"}, {"measurement": "Salmonella count", "setting": "[3]; pre-treatment Day 0", "result": 5.98, "unit": "log cfu/g"}, {"measurement": "Salmonella count", "setting": "[1]; pre-treatment Day 0", "result": 5.63, "unit": "log cfu/g"}]}]}
